For this test, the system named is white radish seeds. The experiment in a line: Drought tolerance test on white radish after removal of aluminum foil. In kind it is in vivo. The following applies: foil removed, samples A/B/C 10/100/300 μg/mL·agar extract, D 1 μg/mL·agar ABA, dH2O control G 27%. Here is the method: Samples A, B, and C were prepared containing, respectively, 10, 100, and 300 μg/mL·agar of the drought tolerance improving metabolite producing bacterium extract obtained by the method described above. The samples were each dispensed into 10 test tubes.
ABA standard samples D, E, and F were prepared containing, respectively, 1, 10, and 20 μg/mL·agar of abscisic acid (ABA) as a standard. The samples were each dispensed into 10 test tubes.
After a culture medium was prepared in each sample, one white radish seed was placed in each test tube. After each test tube was capped with aluminum foil, each seed was germinated in the dark.
Samples A to C, D and G prepared in test method 1 described above were subjected to a drought tolerance test after the aluminum foil was removed from each test tube.

For the compound `CC1=CC(=O)CC(C)(C)C1(O)/C=C/C(C)=C\C(=O)O` (stereo not shown) [Sample D, abscisic acid], the “percentage of sound individuals (drought tolerance level)” value amounted to 66%.

Values taken from patent US20180027748A1, “METHOD FOR PRODUCING METABOLITE CAPABLE OF IMPROVING DROUGHT TOLERANCE USING MICROORGANISM, AND METHOD FOR IMPROVING DROUGHT TOLERANCE OF PLANT USING SAID METABOLITE” (priority 2015, published 2018).
